Experimental data from US20100331384A1, “GUANIDINE BASED COMPOUNDS” (UNIVERSIDAD DEL PAIS VASCO/EUSKAL HERRIKO UNIBERTSITATEA, priority 2007, published 2010).
“Also recorded” adds a separate entry of the source.

Key:
α2-ARs [1] = conditions: starred compounds, affinity reported in reference 9 by the same group; cited from earlier work
α2-ARs [2] = experiment: [3H]RX821002 competition binding assay in human brain PFC membranes; conditions: 31a vs 10b, 31b vs 17b
Protocol: (§1) Preparation of membranes. Neural membranes (P2 fractions) were prepared from the PFC of human brains obtained at autopsy in the Instituto Vasco de Medicina Legal, Bilbao, Spain. Postmortem human brain samples of each subject (˜1 g) were homogenized using a Teflon-glass grinder (10 up-and-down strokes at 1500 rpm) in 30 volumes of homogenization buffer (1 mM MgCl2, and 5 mM Tris-HCl, pH 7.4) supplemented with 0.25 M sucrose. The crude homogenate was centrifuged for 5 min at 1000×g ([…]) and the supernatant was centrifuged again for 10 min at 40000×g (4° C.). The resultant pellet was washed twice in 20 volumes of homogenization buffer and recentrifuged in similar conditions. Aliquots of 1 mg protein were stored at −70° C. until assay.
(§2) [^3H]RX821002 binding assays. […] Incubations were terminated by diluting the samples with 5 ml of ice-cold Tris incubation buffer (4° C.). Membrane bound [^3H]RX821002 was separated by vacuum filtration through Whatman GF/C glass fibre filters. Then, the filters were rinsed twice with 5 ml of incubation buffer and transferred to minivials containing 3 ml of OptiPhase “HiSafe” II cocktail and counted for radioactivity by liquid scintillation spectrometry. Specific binding was determined and plotted as a function of the compound concentration. Non-specific binding was determined in the presence of adrenaline (10^−5 M).
(§3) Analysis of binding data. Analysis of competition experiments to obtain the inhibition constant (Ki) were performed by nonlinear regression using the GraphPad Prism program. All experiments were analysed assuming a one-site model of radioligand binding. Ki values were normalized to pKi values.

[3] = system: extracellular NA levels in the PFC; experiment: In vivo microdialysis in the PFC, extracellular NA; set-up: species or system male Sprague Dawley rats; conditions: for Emax of increase in extracellular NA levels: local administration by reverse dialysis 1-100 μM in PFC, percentage of basal values; for ability to cross the blood brain barrier (BBB): deduced from NA increase after systemic administration; for α2-AR antagonist properties in vivo: local and systemic administration, rats; for increase of NA extracellular concentration, maximal effect: systemic (intraperitoneal) administration, evaluated in PFC
Source text: Intracerebral microdialysis is a neurochemical technique that has been applied extensively in pharmacological studies aimed at investigating the effect of different drugs on brain neurotransmission. This technique allows one to collect a representative concentration of different neurotransmitters of the area where the probe is implanted while the animals are awake and freely moving.^21
Most antidepressant drugs are able to increase NA extracellular concentrations in different brain areas as the PFC, an area implicated in depression disease. Considering that α2-ARs exert a tonic inhibitory action on NA release from the noradrenergic terminals we assessed the ability of these two new compounds to increase NA extracellular concentration in this area. First, we tested the drugs when administered locally in order to confirm their antagonistic activity over α2-ARs in vivo.
A second step was to study the effect of these compounds increasing NA extracellular concentrations when administered systemically.
In Vivo Microdialysis assays. The experiments were carried out in male Sprague Dawley rats weighing between 250 g and 300 g. At the beginning of the experiments, animals were anaesthetized with chloral hydrate (400 mg/kg i.p.) and a microdialysis probe was implanted by stereotaxic surgery into prefrontal cortex (PFC) brain area. The coordinates selected for the PFC were as follows: AP (anterior to bregma) +2.8 mm, L (lateral from the mid-sagittal suture) +1 mm, DV (ventral from the dura surface) −5 mm.^22 After 24 hours for animal recovery, perfusion fluid (artificial cerebrospinal fluid) is pumped through the probe at a flow rate of 1 μl/min. In the semipermeable membrane, that is the critical side of the probe and is placed on the selected area, molecules flow into and out the cannulae by diffusion. Therefore, microdialysis technique allows local administration of substrates dissolved in the perfusion fluids.
When drugs were locally administered, they were dissolved in a CSF and applied during 70 min via dialysis probe implanted in the PFC in increasing concentrations of 1, 10 and 100 μM. The compounds systemically administered were dissolved in saline and injected intraperitoneally.
Samples, collected with the microdialysis procedure (every 35 min), were analyzed by HPLC with electrochemical detection. NA concentrations were monitorizated by an amperometric detector (Hewlett-Packard model 1049A) at an oxidizing potential of +650 mV. The movil phase (12 mM citric acid, 1 mM EDTA, 0.7 mM octylsodio sulfate, pH 5 and 10% methanol) was filtered, degassed (Hewlett-Packard model 1100 degasser) and delivered at a flow rate of 0.2 ml/min by a Hewlett-Packard model 1100 pump. Stationary phase was a column of 150×2.1 mm (Thermo Electron Corporation, U.S.A.). Samples (injection volume 37 μl) were injected and NA analized in a run time of 10 min. Solution of standard noradrenaline was injected every working day to create a new calibration table.
The mean values of the first three samples before substrate administration were considered as 100% basal value. All measures of extracellular NA concentrations are expressed as percentage of the baseline value±s.e.mean. One way analysis of variance (ANOVA) for control group or two way ANOVA between control and each treated group was assessed for statistical analysis. After the experiments, rats were sacrificed with an overdose of chloral hydrate and the brains were dissected to check the correct implantation of the probe.

α2-ARs [4] = target: T1, α2-ARs (Homo sapiens, UniProt P08913); experiment: [3H]RX821002 competition binding assay in human brain PFC membranes; conditions: human brain PFC tissue, competition with [3H]RX821002 1 nM
T1 construct: other: human brain tissue in vitro; other: stimulation of [35S]GTPγS b
T1 sequence (P08913 whole entry): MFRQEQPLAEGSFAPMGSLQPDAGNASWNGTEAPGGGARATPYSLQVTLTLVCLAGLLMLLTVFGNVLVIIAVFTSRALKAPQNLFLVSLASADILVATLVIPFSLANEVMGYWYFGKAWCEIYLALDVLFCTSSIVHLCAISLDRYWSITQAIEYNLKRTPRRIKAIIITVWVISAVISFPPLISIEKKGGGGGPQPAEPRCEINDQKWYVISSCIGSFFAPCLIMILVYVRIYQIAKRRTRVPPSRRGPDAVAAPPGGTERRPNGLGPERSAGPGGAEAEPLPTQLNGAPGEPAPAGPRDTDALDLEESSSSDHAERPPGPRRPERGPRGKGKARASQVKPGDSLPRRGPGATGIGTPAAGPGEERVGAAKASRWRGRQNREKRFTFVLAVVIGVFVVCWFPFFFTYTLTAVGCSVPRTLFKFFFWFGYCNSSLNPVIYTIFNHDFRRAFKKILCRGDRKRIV
Protocol: as §1, §2, §3

α2-ARs [5] = target: T1, α2-ARs; experiment: [35S]GTPγS binding functional assay, compounds alone; type: biochemical; conditions: for agonistic or antagonistic properties in [35S]GTPγS experiments: human brain PFC; for stimulation of [35S]GTPγS binding by the compound on its own: human brain PFC membranes
Protocol: The [^35S]GTPγs binding assay constitutes a functional measure of the interaction of the receptor and the G-protein and is a useful tool to distinguish between agonists (increasing the nucleotide binding), inverse agonists (decreasing the nucleotide binding), and neutral antagonists (not affecting the nucleotide binding) of GPCRs.^20 Experiments were performed in low-affinity receptor conditions for agonists (presence of guanine nucleotides and sodium in the medium), and therefore, typical potency values are two-three logarithmic units lower than affinity values obtained in radioligand receptor binding experiments.^20
as §1
[^35S]GTPγs binding assays. The incubation buffer for measuring [^35S]GTPγs binding to brain membranes contained, in a total volume of 500 μL, 1 mM EGTA, 3 mM MgCl2, 100 mM NaCl, […], 50 mM Tris-HCl at pH 7.4 and 0.5 nM [^35S]GTPγs. Proteins aliquots were thawed and re-suspended in the same buffer. The incubation was started by addition of the membrane suspension (40 μg of membrane proteins) to the previous mixture and was performed at 30° C. for 120 min with shaking. In order to evaluate the influence of the compounds on [^35S]GTPγs binding, 8 concentrations (10^−10 to 10^−3M) of the different compounds were added to the assay. Incubations were terminated by adding 3 mL of ice-cold re-suspension buffer followed by rapid filtration through Whatman GF/C filters pre-soaked in the same buffer. The filters were rinsed twice with 3 mL of ice-cold re-suspension buffer, transferred to vials containing 5 mL of OptiPhase HiSafe II cocktail (Wallac, UK) and the radioactivity trapped was determined by liquid scintillation spectrometry (Packard 2200CA). […] Non-specific binding of the radioligand was defined as the remaining [^35S]GTPγs binding in the presence of 10 μM unlabelled GTPγs.

mice = experiment: Tail suspension test; type: in vivo; conditions: compared with saline control, FIG. 4
Source text: The tail suspension test as illustrated in FIG. 4 has become one of the most widely used models for assessing antidepressant-like activity in mice. The test is based on the fact that animals subjected to the short-term, inescapable stress of being suspended by their tail, will develop an immobile posture. Antidepressant medications encourage the animal to struggle and promote the occurrence of escape-related behaviour.

α2-ARs [6] = target: T1, α2-ARs; experiment: [3H]RX821002 competition binding assay in human brain PFC membranes; conditions: human brain tissue in vitro
α2-ARs [7] = conditions: previously described, reference 9; cited from earlier work
[8] = system: cloned human α2-AR receptor; conditions: disclosed in WO9846572; cited from earlier work

Row | Compound | affinity values (pKi) for the α2-ARs (α2-ARs [1]) | Emax of increase in extracellular NA levels [3] [%] | agonistic or antagonistic properties in [35S]GTPγS experiments (α2-ARs [5]) | stimulation of [35S]GTPγS binding by the compound on its own (α2-ARs [5]) | affinity towards the α2-ARs compared with references (α2-ARs [6]) | further results
1 | c1cc2c(cc1NC1=NCCN1)OCCO2 [Compound 31a] | 7.85 | – | – | – | – | pKi higher than methylene containing counterpart (α2-ARs [2]): 0.52 logarithmic units
2 | COC1(C2=NCCN2)COc2ccccc2O1 (stereo not drawn) [RX821002, 2-methoxy-idazoxan, reference compound] | – | 287±49 | – | – | – | affinity for the α2-ARs expressed as pKi (α2-ARs [4]): 9.04
3 | c1cc(NC2=NCCN2)ccc1CCc1ccc(NC2=NCCN2)cc1 [Compound 20b, 4,4′-di(2-imidazolidinylimino)-1,2-diphenylethane] | – | 255±76 | antagonistic properties | did not stimulate binding | within the range of those of Idazoxan and/or Clonidine | ability to cross the blood brain barrier (BBB) [3]: able to cross the blood brain barrier; α2-AR antagonist properties in vivo [3]: α2-AR antagonist properties in vivo; increase of NA extracellular concentration, maximal effect [3]: 156±35%; immobility period (mice): slightly shorter immobility period than the saline control
4 | c1cc2c(cc1NC1=NCCN1)OCO2 [Compound 3] | 7.33 | – | – | – | – | agonist or antagonist nature at α2-ARs, previously reported (α2-ARs [7]): α2-AR antagonists; also recorded: antagonist
5 | N=C(N)Nc1ccc2c(c1)CCCC2 [Compound 17b, N-(5,6,7,8-tetrahydro-naphthalen-2-yl)-guanidine] | – | 326±113 | antagonistic properties | did not stimulate binding | within the range of those of Idazoxan and/or Clonidine | ability to cross the blood brain barrier (BBB) [3]: able to cross the blood brain barrier; α2-AR antagonist properties in vivo [3]: α2-AR antagonist properties in vivo; increase of NA extracellular concentration, maximal effect [3]: 373±73%; immobility period (mice): slightly shorter immobility period than the saline control
6 | N=C(N)Nc1ccc2c(c1)OCCO2 [Compound 31b] | 8.21 | – | – | – | – | agonist or antagonist nature at α2-ARs, previously reported (α2-ARs [7]): agonist; pKi higher than methylene containing counterpart (α2-ARs [2]): 1.10 logarithmic units
7 | c1cc2c(cc1NC1=NCCN1)CCC2 [Compound 9b, 5-(2-imidazolidinylimino)indan] | – | – | agonistic properties | stimulated binding | within the range of those of Idazoxan and/or Clonidine | Emax (α2-ARs [5]; read-out: Emax (%), percentage efficacy relative to UK14304): 98%; activity at cloned human α2-AR receptor [8]: agonist
